Assay results from patent US9624182B2, “Compounds as lysophosphatidic acid receptor antagonists” (Amira Pharmaceuticals, Inc., priority 2009, dated 2017).

Biological target: T1, human LPA1 (Homo sapiens, UniProt Q92633)
T1 construct: the full-length cDNA for human LPA1 was obtained by PCR of the reverse transcription reaction; expressed in transfected cells
Assay: LPA1 calcium flux assay
Type: cell-based
Details: CHO cells expressing human LPA1, stimulated with 10 nM LPA; read-out: HLPA1 Ca Flux IC50
Procedure, shortened: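 CHO cells stably expressing cloned human LPA1, serum-starved overnight, loaded with Calcium 4 dye 1 h at 37 °C in HBSS/20 mM Hepes with 0.3% fatty-acid-free HSA. Compounds preincubated 30 min at room temperature, then cells stimulated with 10 nM LPA; intracellular Ca2+ read by fluorescence. IC50 from titration curves.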

T1 sequence (Q92633 whole entry): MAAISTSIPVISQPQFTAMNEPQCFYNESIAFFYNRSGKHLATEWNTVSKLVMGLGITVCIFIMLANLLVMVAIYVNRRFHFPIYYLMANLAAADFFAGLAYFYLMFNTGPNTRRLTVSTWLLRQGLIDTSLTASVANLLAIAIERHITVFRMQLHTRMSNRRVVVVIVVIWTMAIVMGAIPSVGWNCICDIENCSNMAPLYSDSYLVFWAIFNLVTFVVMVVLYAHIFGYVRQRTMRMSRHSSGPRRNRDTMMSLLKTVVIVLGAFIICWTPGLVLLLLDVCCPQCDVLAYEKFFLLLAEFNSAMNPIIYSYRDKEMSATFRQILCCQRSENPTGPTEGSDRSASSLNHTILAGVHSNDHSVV

SMILES | IC50 [nM]
Cc1noc(-c2ccc(-c3ccc(C4(C(=O)O)CC4)cc3)cc2)c1C(O)CCCc1ccncc1 (centres unmarked) [Compound 1-261, 1-{4′-[4-(1-Hydroxy-4-pyridin-4-yl-butyl)-3-methyl-isoxazol-5-yl]-biphenyl-4-yl}-cyclopropanecarboxylic acid] | < 300
Cc1noc(-c2ccc(-c3ccc(CC(=O)O)cc3)cc2)c1C(O)CSCc1cccc(C(F)(F)F)c1 (centres unmarked) [Compound 1-266, (4′-{4-[1-Hydroxy-2-(3-trifluoromethyl-benzylsulfanyl)-ethyl]-3-methyl-isoxazol-5-yl}-biphenyl-4-yl)-acetic acid] | < 300
Cc1noc(-c2ccc(-c3ccc(C4(C(=O)O)CC4)cc3)cc2)c1N(C)C(C)CCc1ccccc1 (centres unmarked) [Compound 1-267, 1-(4′-{3-Methyl-4-[methyl-(1-methyl-3-phenyl-propyl)-amino]-isoxazol-5-yl}-biphenyl-4-yl)-cyclopropanecarboxylic acid] | < 300
Cc1noc(-c2ccc(-c3ccc(C4(C(=O)O)CC4)cc3)cc2)c1NC1CCc2ccccc2C1 (centres unmarked) [Compound 1-270, 1-{4′-[3-Methyl-4-(1,2,3,4-tetrahydro-naphthalen-2-ylamino)-isoxazol-5-yl]-biphenyl-4-yl}-cyclopropanecarboxylic acid] | < 300
Cc1noc(-c2ccc(-c3ccc(C4(C(=O)O)CC4)cc3)cc2)c1NC1Cc2ccccc2C1 [Compound 1-271, 1-{4′-[4-(Indan-2-ylamino)-3-methyl-isoxazol-5-yl]-biphenyl-4-yl}-cyclopropanecarboxylic acid] | 300 to 1000
Cc1noc(-c2ccc(-c3ccc(CC(=O)O)cc3)cc2)c1[C@H](O)CSCc1ccccc1 [Compound 1-272, {4′-[4-((S)-2-Benzylsulfanyl-1-hydroxy-ethyl)-3-methyl-isoxazol-5-yl]-biphenyl-4-yl}-acetic acid] | < 300
Cc1noc(-c2ccc(-c3ccc(CCC(=O)O)cc3)cc2)c1[C@H](O)CSCc1ccccc1 [Compound 1-273, 3-{4′-[4-((S)-2-Benzylsulfanyl-1-hydroxy-ethyl)-3-methyl-isoxazol-5-yl]-biphenyl-4-yl}-propionic acid] | < 300
Cc1noc(-c2ccc(-c3ccc(CCC(=O)O)cc3)cc2)c1[C@H](O)CSCc1cccc(C(F)(F)F)c1 [Compound 1-274, 3-(4′-{4-[(S)-1-Hydroxy-2-(3-trifluoromethyl-benzylsulfanyl)-ethyl]-3-methyl-isoxazol-5-yl}-biphenyl-4-yl)-propionic acid] | < 300
Cc1noc(-c2ccc(-c3ccc(C4(C(=O)O)CC4)cc3)cc2)c1C(O)CSC(C)(C)C (centres unmarked) [Compound 1-275, 1-{4′-[4-(2-tert-Butylsulfanyl-1-hydroxy-ethyl)-3-methyl-isoxazol-5-yl]-biphenyl-4-yl}-cyclopropanecarboxylic acid] | < 300
Cc1noc(-c2ccc(-c3ccc(C4(C(=O)O)CC4)cc3)cc2)c1C(O)CSCC(F)(F)F (centres unmarked) [Compound 1-276, 1-(4′-{4-[1-Hydroxy-2-(2,2,2-trifluoro-ethylsulfanyl)-ethyl]-3-methyl-isoxazol-5-yl}-biphenyl-4-yl)-cyclopropanecarboxylic acid] | < 300
Cc1noc(-c2ccc(-c3ccc(C4(C(=O)O)CC4)cc3)cc2)c1C(O)CSc1ccccc1 (centres unmarked) [Compound 1-277, 1-{4′-[4-(1-Hydroxy-2-phenylsulfanyl-ethyl)-3-methyl-isoxazol-5-yl]-biphenyl-4-yl}-cyclopropanecarboxylic acid] | < 300
Cc1noc(-c2ccc(-c3ccc(C4(C(=O)O)CC4)cc3)cc2)c1NC(C)CSc1ccccc1 (centres unmarked) [Compound 1-278, 1-{4′-[3-Methyl-4-(1-methyl-2-phenylsulfanyl-ethylamino)-isoxazol-5-yl]-biphenyl-4-yl}-cyclopropanecarboxylic acid] | < 300
Cc1noc(-c2ccc(-c3ccc(C4(C(=O)O)CC4)cc3)cc2)c1NC(C)COc1ccccc1 (centres unmarked) [Compound 1-279, 1-{4′-[3-Methyl-4-(1-methyl-2-phenoxy-ethylamino)-isoxazol-5-yl]-biphenyl-4-yl}-cyclopropanecarboxylic acid] | < 300
Cc1noc(-c2ccc(-c3ccc(C4(C(=O)O)CC4)cc3)cc2)c1Nc1ccc2ccccc2n1 [Compound 1-280, 1-{4′-[3-Methyl-4-(quinolin-2-ylamino)-isoxazol-5-yl]-biphenyl-4-yl}-cyclopropanecarboxylic acid] | < 300
Cc1noc(-c2ccc(-c3ccc(C4(C(=O)O)CC4)cc3)cc2)c1NC(C)c1cc2ccccc2s1 (centres unmarked) [Compound 1-284, 1-{4′-[4-(1-Benzo[b]thiophen-2-yl-ethylamino)-3-methyl-isoxazol-5-yl]-biphenyl-4-yl}-cyclopropanecarboxylic acid] | < 300
Cc1noc(-c2ccc(-c3ccc(C4(CC(=O)O)CC4)cc3)cc2)c1NC(C)c1cc2ccccc2s1 (centres unmarked) [Compound 1-286, (1-{4′-[4-(1-Benzo[b]thiophen-2-yl-ethylamino)-3-methyl-isoxazol-5-yl]-biphenyl-4-yl}-cyclopropyl)-acetic acid] | < 300

SMILES | IC50 [nM]
Cc1noc(-c2ccc(-c3ccc(C4(CC(=O)O)CC4)cc3)cc2)c1NC(C)CC(C)(C)c1ccccc1 (centres unmarked) [Compound 1-287, (1-{4′-[4-(1,3-Dimethyl-3-phenyl-butylamino)-3-methyl-isoxazol-5-yl]-biphenyl-4-yl}-cyclopropyl)-acetic acid] | < 300
Cc1noc(-c2ccc(-c3ccc(C4(C(=O)O)CC4)cc3)cc2)c1NC(C)/C=C/c1ccccc1 (centres unmarked) [Compound 1-288, 1-{4′-[3-Methyl-4-((E)-1-methyl-3-phenyl-allylamino)-isoxazol-5-yl]-biphenyl-4-yl}-cyclopropanecarboxylic acid] | < 300
Cc1noc(-c2ccc(-c3ccc(C4(C(=O)O)CC4)cc3)cc2)c1Nc1cccnc1 [Compound 1-290, 1-{4′-[3-Methyl-4-(pyridin-3-ylamino)-isoxazol-5-yl]-biphenyl-4-yl}-cyclopropanecarboxylic acid] | 1000 to 50000
COc1cncc(Nc2c(C)noc2-c2ccc(-c3ccc(C4(C(=O)O)CC4)cc3)cc2)c1 [Compound 1-291, 1-{4′-[4-(5-Methoxy-pyridin-3-ylamino)-3-methyl-isoxazol-5-yl]-biphenyl-4-yl}-cyclopropanecarboxylic acid] | < 300
Cc1noc(-c2ccc(-c3ccc(C4(C(=O)O)CC4)cc3)cc2)c1NC(=O)c1cccc(Br)c1 [Compound 1-292, 1-{4′-[4-(3-Bromo-benzoylamino)-3-methyl-isoxazol-5-yl]-biphenyl-4-yl}-cyclopropanecarboxylic acid] | 300 to 1000
CCCOc1cccc(Nc2c(C)noc2-c2ccc(-c3ccc(C4(C(=O)O)CC4)cc3)cc2)n1 [Compound 1-293, 1-{4′-[3-Methyl-4-(6-propoxy-pyridin-2-ylamino)-isoxazol-5-yl]-biphenyl-4-yl}-cyclopropanecarboxylic acid] | < 300
CCOc1cccc(Nc2c(C)noc2-c2ccc(-c3ccc(C4(C(=O)O)CC4)cc3)cc2)n1 [Compound 1-294, 1-{4′-[4-(6-Ethoxy-pyridin-2-ylamino)-3-methyl-isoxazol-5-yl]-biphenyl-4-yl}-cyclopropanecarboxylic acid] | < 300
CCCCOc1cccc(Nc2c(C)noc2-c2ccc(-c3ccc(C4(C(=O)O)CC4)cc3)cc2)n1 [Compound 1-295, 1-{4′-[4-(6-Butoxy-pyridin-2-ylamino)-3-methyl-isoxazol-5-yl]-biphenyl-4-yl}-cyclopropanecarboxylic acid] | < 300
Cc1noc(-c2ccc(-c3ccc(C4(C(=O)O)CC4)cc3)cc2)c1Nc1ccccn1 [Compound 1-296, 1-{4′-[3-Methyl-4-(pyridin-2-ylamino)-isoxazol-5-yl]-biphenyl-4-yl}-cyclopropanecarboxylic acid] | > 50000
Cc1noc(-c2ccc(-c3ccc(C4(C(=O)O)CC4)cc3)cc2)c1Nc1cccc(OC(C)C)n1 [Compound 1-297, 1-{4′-[4-(6-Isopropoxy-pyridin-2-ylamino)-3-methyl-isoxazol-5-yl]-biphenyl-4-yl}-cyclopropanecarboxylic acid] | < 300
Cc1noc(-c2ccc(-c3ccc(C4(C(=O)O)CC4)cc3)cc2)c1Nc1cccc(C(=O)O)n1 [Compound 1-298, 6-{5-[4′-(1-Carboxy-cyclopropyl)-biphenyl-4-yl]-3-methyl-isoxazol-4-ylamino}-pyridine-2-carboxylic acid] | 1000 to 50000
Cc1noc(-c2ccc(-c3ccc(C4(C(=O)O)CC4)cc3)cc2)c1Nc1cccc(C(=O)NCCN(C)C)n1 [Compound 1-299, 1-(4′-{4-[6-(2-Dimethylamino-ethylcarbamoyl)-pyridin-2-ylamino]-3-methyl-isoxazol-5-yl}-biphenyl-4-yl)-cyclopropanecarboxylic acid] | 1000 to 50000
Cc1noc(-c2ccc(-c3ccc(C4(C(=O)O)CC4)cc3)cc2)c1Nc1cccc(C(=O)NCC(C)(C)C)n1 [Compound 1-300, 1-(4′-{4-[6-(2,2-Dimethyl-propylcarbamoyl)-pyridin-2-ylamino]-3-methyl-isoxazol-5-yl}-biphenyl-4-yl)-cyclopropanecarboxylic acid] | < 300
Cc1noc(-c2ccc(-c3ccc(C4(C(=O)O)CC4)cc3)cc2)c1Nc1cccc(OC(C)(C)C)n1 [Compound 1-301, 1-{4′-[4-(6-tert-Butoxy-pyridin-2-ylamino)-3-methyl-isoxazol-5-yl]-biphenyl-4-yl}-cyclopropanecarboxylic acid] | < 300
Cc1noc(-c2ccc(-c3ccc(C4(C(=O)O)CC4)cc3)cc2)c1Nc1cccc(O)n1 [Compound 1-302, 1-{4′-[4-(6-Hydroxy-pyridin-2-ylamino)-3-methyl-isoxazol-5-yl]-biphenyl-4-yl}-cyclopropanecarboxylic acid] | 1000 to 50000
CCCCCCCCCCCCOc1cccc(Nc2c(C)noc2-c2ccc(-c3ccc(C4(C(=O)O)CC4)cc3)cc2)n1 [Compound 1-303, 1-{4′-[4-(6-Dodecyloxy-pyridin-2-ylamino)-3-methyl-isoxazol-5-yl]-biphenyl-4-yl}-cyclopropanecarboxylic acid] | 1000 to 50000
